From patent publication US12655116B2, “Substituted isophthalic acid diamides” (Bayer Aktiengesellschaft, priority 2020, dated 2026)
“And” between values parts separate entries of the source, which are not always exact repeats. Equal entries are not always repeated.

How the values were obtained:
ABUTH [1] = assay: Post-emergence herbicidal action against ABUTH; format: in vivo, Abutilon theophrasti; conditions: visual assessment about 3 weeks after treatment vs untreated controls
Procedure, shortened: (§1)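 Spray, one-leaf stage: WP or EC compound in water, 600–800 l/ha, 0.2% wetting agent. Plants held about 3 weeks in the greenhouse, then visually rated in percent of kill compared with untreated controls.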

DIGSA [2] = assay: Pre-emergence herbicidal action against DIGSA; format: in vivo, Digitaria sanguinalis
Procedure, shortened: (§2)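 Pre-emergence soil-surface spray of formulated compound (WP or EC; 600 to 800 l/ha; 0.2% wetting agent) over seeds sown in sandy loam. After 3 weeks under greenhouse conditions, damage is estimated visually in percent against untreated plants.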

SETVI [3] = assay: Pre-emergence herbicidal action against SETVI; format: in vivo, Setaria viridis; conditions: Setaria viridis, 504 h; for pest or weed control at 80 g/ha: dosage 80 g/ha
Procedure, shortened: as §2

ECHCG [4] = assay: Pre-emergence herbicidal action against ECHCG; format: in vivo, Echinochloa crus-galli
Procedure, shortened: as §2

ABUTH [5] = assay: Pre-emergence herbicidal action against ABUTH; format: in vivo, Abutilon theophrasti
Procedure, shortened: as §2

AMARE [6] = assay: Pre-emergence herbicidal action against AMARE; format: in vivo, Amaranthus retroflexus
Procedure, shortened: as §2

STEME = assay: Pre-emergence herbicidal action against STEME; format: in vivo, Stellaria media
Excerpt: Seeds of monocotyledonous and dicotyledonous weed plants and crop plants are laid out in sandy loam soil in wood-fiber pots and covered with soil. The compounds of the invention, formulated in the form of wettable powders (WP) or as emulsion concentrates (EC), are then applied to the surface of the covering soil in the form of an aqueous suspension or emulsion at a water application rate equivalent to 600 to 800 l/ha, with addition of 0.2% wetting agent. After the treatment, the pots are placed in a greenhouse and kept under good growth conditions for the trial plants. The damage to the test plants is scored visually after a test period of 3 weeks by comparison with untreated controls (herbicidal activity in percent (%): 100% activity=the plants have died, 0% activity=like control plants). […] The tables below illustrate, in an illustrative manner, the post-emergence herbicidal action of the compounds of the invention, the herbicidal activity being stated in percent.

AMARE [7] = assay: Post-emergence herbicidal action against AMARE; format: in vivo, Amaranthus retroflexus; conditions: 20 g/ha, visual assessment about 3 weeks after treatment, 100% = plants have died, 0% = like control plants
Procedure, shortened: as §1

SETVI [8] = assay: Post-emergence herbicidal action against SETVI; format: in vivo, Setaria viridis
Procedure, shortened: as §1

VIOTR [9] = assay: Pre-emergence herbicidal action against VIOTR; format: in vivo, Viola tricolor
Procedure, shortened: as §2

MATIN [10] = assay: Pre-emergence herbicidal action against MATIN; format: in vivo, Matricaria inodora
Procedure, shortened: as §2

PHBPU [11] = assay: Pre-emergence herbicidal action against PHBPU; format: in vivo, Pharbitis purpurea; conditions: Ipomoea purpurea, 504 h, dosage 80 g/ha
Procedure, shortened: as §2

VIOTR [12] = assay: Post-emergence herbicidal action against VIOTR; format: in vivo, Viola tricolor; conditions: Viola tricolor, 504 h
Procedure, shortened: as §1

VERPE [13] = assay: Post-emergence herbicidal action against VERPE; format: in vivo, Veronica persica; conditions: Veronica persica, 504 h, 20 g/ha
Procedure, shortened: as §1

MATIN [14] = assay: Post-emergence herbicidal action against MATIN; format: in vivo, Matricaria inodora; conditions: Tripleurospermum inodorum, 504 h
Procedure, shortened: as §1

ALOMY [15] = assay: Post-emergence herbicidal action against ALOMY; format: in vivo, Alopecurus myosuroides; conditions: Alopecurus myosuroides, 504 h, dosage 20 g/ha, visual assessment about 3 weeks after treatment vs untreated controls
Procedure, shortened: as §1

ECHCG [16] = assay: Post-emergence herbicidal action against ECHCG; format: in vivo, Echinochloa crus-galli; conditions: Echinochloa crus-galli, 504 h, dosage 20 g/ha
Procedure, shortened: as §1

POLCO = assay: Pre-emergence herbicidal action against POLCO; format: in vivo, Polygonum convolvulus; conditions: Fallopia convolvulus, 504 h
Procedure, shortened: as §2

DIGSA [17] = assay: Post-emergence herbicidal action against DIGSA; format: in vivo, Digitaria sanguinalis; conditions: Digitaria sanguinalis, 504 h
Procedure, shortened: as §1

ALOMY [18] = assay: Pre-emergence herbicidal action against ALOMY; format: in vivo, Alopecurus myosuroides; conditions: Alopecurus myosuroides, 504 h, pre-emergence
Procedure, shortened: as §2

AVEFA = assay: Pre-emergence herbicidal action against AVEFA; format: in vivo, Avena fatua; conditions: Avena fatua, 504 h; 80 g/ha, pre-emergence
Procedure, shortened: as §2

VERPE [19] = assay: Pre-emergence herbicidal action against VERPE; format: in vivo, Veronica persica; conditions: Veronica persica, 504 h, dosage 80 g/ha
Procedure, shortened: as §2

PHBPU [20] = assay: Post-emergence herbicidal action against PHBPU; format: in vivo, Pharbitis purpurea; conditions: Ipomoea purpurea, 504 h
Procedure, shortened: as §1

[21] = Abutilon theophrasti, 504 h, dosage 20 g/ha
[22] = Digitaria sanguinalis, 504 h, dosage 80 g/ha
[23] = Abutilon theophrasti, 504 h, 80 g/ha, scored visually after 3 weeks vs untreated controls (100% = plants have died, 0% = like control plants)
[24] = Amaranthus retroflexus, 504 h, 20 g/ha, scored visually after 3 weeks vs untreated controls, 100% = plants have died, 0% = like control plants
[25] = Amaranthus retroflexus, 504 h, 80 g/ha, scored visually after 3 weeks vs untreated controls, 100% = plants have died, 0% = like control plants
[26] = 80 g/ha, scored visually after 3 weeks vs untreated controls (100% = plants have died, 0% = like control plants)

CC(=O)NC(=O)c1c(C(F)(F)F)ccc(C(=O)Nc2nnc(C)o2)c1Cl [Example 6-252]
pest or weed control at 20 g/ha (ABUTH [1]; [21]): 80%
pest or weed control at 80 g/ha (ABUTH [1]; Abutilon theophrasti, 504 h, dosage 80 g/ha): 100%
pest or weed control at 80 g/ha (DIGSA [2]; [22]): 90%
pest or weed control at 320 g/ha (DIGSA [2]; Digitaria sanguinalis, 504 h, dosage 320 g/ha): 90%
pest or weed control at 80 g/ha (SETVI [3]): 90%
pest or weed control at 320 g/ha (SETVI [3]; dosage 320 g/ha): 90%
pest or weed control at 320 g/ha (ECHCG [4]; Echinochloa crus-galli, 504 h, 320 g/ha): 90%
pest or weed control at 80 g/ha (ABUTH [5]; [23]): 80%
pest or weed control at 320 g/ha (ABUTH [5]; Abutilon theophrasti, 504 h, Dosage: 320 g/ha, scored visually after 3 weeks, 100% = plants have died, 0% = like control plants): 90%
pest or weed control at 20 g/ha (AMARE [6]; [24]): 80%
pest or weed control at 80 g/ha (AMARE [6]; [25]): 90%
pest or weed control at 320 g/ha (AMARE [6]; Amaranthus retroflexus, 504 h, 320 g/ha, scored visually after 3 weeks, 100% = plants have died, 0% = like control plants): 90%
pest or weed control at 320 g/ha (STEME; Stellaria media, 504 h, dosage 320 g/ha): 90%

CCc1c(C(=O)Nc2ncnn2C)ccc(C(F)(F)F)c1C(=O)NC1CC1 [Example 4-212]
Post-emergence action against ABUTH in % (ABUTH [1]; dosage 20 g/ha): 80%
Pre-emergence action against DIGSA in % (DIGSA [2]; dosage 20 g/ha): 80%
Pre-emergence action against DIGSA in % (DIGSA [2]; dosage 80 g/ha): 90%
Post-emergence action at 20 g/ha against AMARE in % (AMARE [7]): 80%
Pre-emergence action against ECHCG in % (ECHCG [4]; 80 g/ha): 80%
Post-emergence action against SETVI in % (SETVI [8]; dosage 20 g/ha): 80%
Pre-emergence action against ABUTH (herbicidal activity) (ABUTH [5]; [26]): 90%
Pre-emergence action against VIOTR in % (VIOTR [9]; dosage 80 g/ha): 90%
Pre-emergence action against AMARE in % (AMARE [6]; 20 g/ha, scored visually after 3 weeks vs untreated controls, 100% = plants have died, 0% = like control plants): 90%
Pre-emergence action against AMARE in % (AMARE [6]; [26]): 90%
Pre-emergence action against STEME in % (STEME; dosage 80 g/ha): 90%
Pre-emergence action against MATIN in % (MATIN [10]; dosage 20 g/ha): 80%
Pre-emergence action against MATIN in % (MATIN [10]; dosage 80 g/ha): 80% and 90%

CCNC(=O)c1c(C(F)F)ccc(C(=O)Nc2nnnn2CC)c1CC [Example 2-278]
pest or weed control at 80 g/ha (PHBPU [11]): 90%
pest or weed control at 5 g/ha (ABUTH [1]; Abutilon theophrasti, 504 h, dosage 5 g/ha): 80%
pest or weed control at 20 g/ha (ABUTH [1]; [21]): 90%
pest or weed control at 5 g/ha (VIOTR [12]; 5 g/ha): 90%
pest or weed control at 20 g/ha (VIOTR [12]; 20 g/ha): 90%
pest or weed control at 20 g/ha (DIGSA [2]; Digitaria sanguinalis, 504 h, dosage 20 g/ha): 100%
pest or weed control at 80 g/ha (DIGSA [2]; [22]): 100%
pest or weed control at 20 g/ha (VERPE [13]): 100%
pest or weed control at 5 g/ha (MATIN [14]; dosage 5 g/ha): 90%
pest or weed control at 20 g/ha (MATIN [14]; dosage 20 g/ha): 90%
pest or weed control at 20 g/ha (ALOMY [15]): 80%
pest or weed control at 20 g/ha (ECHCG [16]): 90%
pest or weed control at 20 g/ha (POLCO; dosage 20 g/ha): 80%
pest or weed control at 80 g/ha (POLCO; dosage 80 g/ha): 80%
pest or weed control at 5 g/ha (DIGSA [17]; 5 g/ha): 90%
pest or weed control at 20 g/ha (DIGSA [17]; 20 g/ha): 90%
pest or weed control at 80 g/ha (ALOMY [18]; [26]): 90%
pest or weed control at 20 g/ha (ALOMY [18]; 20 g/ha, scored visually after 3 weeks, 100% = plants have died, 0% = like control plants): 80%
pest or weed control at 80 g/ha (SETVI [3]): 100%
pest or weed control at 20 g/ha (AMARE [7]; Amaranthus retroflexus, 504 h): 100%
pest or weed control at 80 g/ha (ECHCG [4]; Echinochloa crus-galli, 504 h, 80 g/ha): 100%
pest or weed control at 5 g/ha (SETVI [8]; Setaria viridis, 504 h, dosage 5 g/ha): 80%
pest or weed control at 20 g/ha (SETVI [8]; Setaria viridis, 504 h, dosage 20 g/ha): 90%
pest or weed control at 80 g/ha (AVEFA): 90%
pest or weed control at 80 g/ha (VERPE [19]): 100%
pest or weed control at 5 g/ha (PHBPU [20]; dosage 5 g/ha): 80%
pest or weed control at 20 g/ha (PHBPU [20]; dosage 20 g/ha): 90%
pest or weed control at 80 g/ha (ABUTH [5]; [23]): 100%
pest or weed control at 20 g/ha (ABUTH [5]; Abutilon theophrasti, 504 h, dosage 20 g/ha, scored visually after 3 weeks vs untreated controls, 100% = plants have died, 0% = like control plants, read-out: Pre-emergence action against ABUTH (herbicidal activity in percent)): 100%
pest or weed control at 20 g/ha (VIOTR [9]; Viola tricolor, 504 h, dosage 20 g/ha): 100%
pest or weed control at 80 g/ha (VIOTR [9]; Viola tricolor, 504 h, dosage 80 g/ha): 100%
pest or weed control at 20 g/ha (AMARE [6]; [24]): 100%
pest or weed control at 80 g/ha (AMARE [6]; [25]): 100%
pest or weed control at 20 g/ha (MATIN [10]; Tripleurospermum inodorum, 504 h, dosage 20 g/ha): 100%
pest or weed control at 80 g/ha (MATIN [10]; Tripleurospermum inodorum, 504 h, dosage 80 g/ha): 100%
